Counter-ions that a name gives are not always drawn.
Target: T1, Human Polθ polymerase domain (aa1820-2590) (Homo sapiens, UniProt O75417)
T1 construct: Human Polθ polymerase domain (aa1820-2590) was expressed in E. Coli; made in house; host or cells: E. coli
T1 sequence (O75417 1820-2590): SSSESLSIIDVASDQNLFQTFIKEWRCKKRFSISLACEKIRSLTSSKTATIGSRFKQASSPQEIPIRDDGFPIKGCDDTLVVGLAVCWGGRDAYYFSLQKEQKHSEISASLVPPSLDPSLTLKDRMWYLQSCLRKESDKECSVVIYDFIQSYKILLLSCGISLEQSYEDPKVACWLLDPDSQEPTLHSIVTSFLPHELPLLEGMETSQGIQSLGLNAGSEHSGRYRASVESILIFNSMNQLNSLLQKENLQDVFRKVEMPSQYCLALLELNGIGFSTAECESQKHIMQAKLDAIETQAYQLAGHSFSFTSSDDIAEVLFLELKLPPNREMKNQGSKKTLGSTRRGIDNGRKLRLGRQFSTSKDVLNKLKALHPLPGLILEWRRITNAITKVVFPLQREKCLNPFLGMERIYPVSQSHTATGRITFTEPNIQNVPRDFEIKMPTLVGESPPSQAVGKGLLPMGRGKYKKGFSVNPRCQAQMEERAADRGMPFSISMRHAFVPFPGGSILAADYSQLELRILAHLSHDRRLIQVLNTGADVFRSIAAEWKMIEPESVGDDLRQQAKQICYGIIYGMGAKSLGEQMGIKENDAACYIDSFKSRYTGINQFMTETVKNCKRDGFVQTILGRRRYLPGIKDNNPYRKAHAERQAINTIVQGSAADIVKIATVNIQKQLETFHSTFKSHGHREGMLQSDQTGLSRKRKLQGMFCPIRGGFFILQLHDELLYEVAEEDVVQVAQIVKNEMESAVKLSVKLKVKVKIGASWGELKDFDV
Test: Polθ Polymerase Domain WT KI Assay (PicoGreen)
Assay type: biochemical
Conditions: 100 nM DNA substrate, 0.156 nM Polθ, initial rates vs inhibitor concentration
Experimental: A PicoGreen assay was used to measure the KI values of reversible compounds that inhibit the activity of Polθ in vitro.
Human Polθ polymerase domain (aa1820-2590) was expressed in E. Coli, purified, aliquoted and stored at −80° C. until required. Polθ substrate was generated from a 1.2:1 mix of DNA II Short to DNA II Long to give a final concentration of […] substrate in annealing buffer (20 mM Tris pH 7.5, 50 mM NaCl). The substrate was heated in 50 mL aliquots to 95° C. in a heating block for 5 min before the heating block switched off, the reaction left to cool to rt and stored at −20° C. until required.
Assay measurements were performed with 1× buffer comprising 25 mM Tris pH 7.5, 12.5 mM NaCl, […], 5% (v/v) glycerol, 0.01% v/v Triton x-100, 0.1 mg/ml BSA, 1 mM DTT. […] 100 nL of 23×1:1.5-fold serial dilutions and a DMSO only control were dispensed using the Tecan dispenser into Greiner 384 well black low volume plates (product code 784076). DMSO concentration was maintained at 1% of the final assay volume by back filling with DMSO.
To stop the reaction, 5 μL of a solution containing 25 mM Tris-HCl PH 7.5 and 20 mM EDTA was added at […] (t=0, 15, 30, 60, 90, 120, 150, 180 mins) using the Tempest's time delay function. The plates were covered during the time course to prevent evaporation. After completing the assay, 5 μL of detection reagent (25 mM Tris-HCl pH 7.5 and 2.5% (v/v) PicoGreen) was dispensed into the wells using a Tempest liquid handler (Formulatrix) and plates subsequently read on the CLARIOstar Plus (BMG Labtech) using the default optical settings for fluorescein and the auto gain/focus settings.
All data analysis was carried out using GraphPad Prism V.8 (GraphPad Software Inc, San Diego, CA). Time course data for each inhibitor concentration were fitted to the linear regression model in GraphPad Prism. Any time points where the control (DMSO only) reaction was no longer linear were excluded from the analysis. The initial rates (slopes) obtained from the linear regression were then plotted against inhibitor concentration and fitted to an inhibitor vs. response variable slope (four parameter) model on GraphPad Prism to determine the KI values.

Compound	Ki
Cc1cc(C(F)(F)F)cc(N2C(=O)C[C@@H]3CN(CC(C)O)c4c(Cl)cccc4N(C)C(=O)[C@H]32)n1 (mixture of isomers) [Example 131a, (3aR,11aS)-6-chloro-5-((S/R)-2-hydroxypropyl)-10-methyl-1-(6-methyl-4-(trifluoromethyl)pyridin-2-yl)-1,3a,4,5,10,11a-hexahydro-2H-benzo[b]pyrrolo[2,3-f][1,4]diazocine-2,11(3H)-dione]	1.99 nM
Cc1cc(C(F)(F)F)cc(N2C(=O)C[C@@H]3CN(Cc4cn5c(n4)[C@H](C)N(C)CC5)c4c(Cl)cccc4N(C)C(=O)[C@H]32)n1 (racemic) [Example 96b, (3aR,11aS)-6-Chloro-5-(((S/R)-7,8-dimethyl-5,6,7,8-tetrahydroimidazo[1,2-a]pyrazin-2-yl)methyl)-10-methyl-1-(6-methyl-4-(trifluoromethyl)pyridin-2-yl)-1,3a,4,5,10,11a-hexahydro-2H-benzo[b]pyrrolo[2,3-f][1,4]diazocine-2,11(3H)-dione]	1.66 nM
Cc1cc(C(F)(F)F)cc(N2C(=O)C[C@@H]3CN(C[C@@H]4CCCCN4)c4c(Cl)cccc4N(C)C(=O)[C@H]32)n1 (racemic) [Example 105b, (3aR,11aS)-6-Chloro-10-methyl-1-(6-methyl-4-(trifluoromethyl)pyridin-2-yl)-5-(((S/R)-piperidin-2-yl)methyl)-1,3a,4,5,10,11a-hexahydro-2H-benzo[b]pyrrolo[2,3-f][1,4]diazocine-2,11(3H)-dione]	2.98 nM
Cc1cc(C(F)(F)F)cc(N2C(=O)C[C@@H]3CN(C[C@@H]4CCCN4)c4c(Cl)cccc4N(C)C(=O)[C@H]32)n1 (racemic) [Example 107b, (3aR,11aS)-6-Chloro-10-methyl-1-(6-methyl-4-(trifluoromethyl)pyridin-2-yl)-5-(((S/R)-pyrrolidin-2-yl)methyl)-1,3a,4,5,10,11a-hexahydro-2H-benzo[b]pyrrolo[2,3-f][1,4]diazocine-2,11(3H)-dione]	5.21 nM
Cc1cc(C(F)(F)F)cc(N2C(=O)C[C@@H]3CN(C[C@H]4COCCN4)c4c(Cl)cccc4N(C)C(=O)[C@H]32)n1 (racemic) [Example 108a, (3aR,11aS)-6-Chloro-10-methyl-1-(6-methyl-4-(trifluoromethyl)pyridin-2-yl)-5-(((S/R)-morpholin-3-yl)methyl)-1,3a,4,5,10,11a-hexahydro-2H-benzo[b]pyrrolo[2,3-f][1,4]diazocine-2,11(3H)-dione]	2.17 nM
Cc1cc(C(F)(F)F)cc(N2C(=O)C[C@@H]3CN(C[C@@H]4CNCCO4)c4c(Cl)cccc4N(C)C(=O)[C@H]32)n1 (racemic) [Example 109b, (3aR,11aS)-6-Chloro-10-methyl-1-(6-methyl-4-(trifluoromethyl)pyridin-2-yl)-5-(((S/R)-morpholin-2-yl)methyl)-1,3a,4,5,10,11a-hexahydro-2H-benzo[b]pyrrolo[2,3-f][1,4]diazocine-2,11(3H)-dione]	2.02 nM
Cc1cc(C(F)(F)F)cc(N2C(=O)C[C@@H]3CN(C[C@@H]4CCCCN4C)c4c(Cl)cccc4N(C)C(=O)[C@H]32)n1 (racemic) [Example 117b, (3aR,11aS)-6-Chloro-10-methyl-1-(6-methyl-4-(trifluoromethyl)pyridin-2-yl)-5-(((S/R)-1-methylpiperidin-2-yl)methyl)-1,3a,4,5,10,11a-hexahydro-2H-benzo[b]pyrrolo[2,3-f][1,4]diazocine-2,11(3H)-dione]	4.09 nM
Cc1cc(C(F)(F)F)cc(N2C(=O)C[C@@H]3CN(C[C@@H]4CCCN4C)c4c(Cl)cccc4N(C)C(=O)[C@H]32)n1 (racemic) [Example 118b, (3aR,11aS)-6-Chloro-10-methyl-1-(6-methyl-4-(trifluoromethyl)pyridin-2-yl)-5-(((S/R)-1-methylpyrrolidin-2-yl)methyl)-1,3a,4,5,10,11a-hexahydro-2H-benzo[b]pyrrolo[2,3-f][1,4]diazocine-2,11(3H)-dione]	6.04 nM
Cc1cc(C(F)(F)F)cc(N2C(=O)C[C@@H]3CN(C[C@@H]4CN(C)CCO4)c4c(Cl)cccc4N(C)C(=O)[C@H]32)n1 (racemic) [Example 120b, (3aR,11aS)-6-Chloro-10-methyl-1-(6-methyl-4-(trifluoromethyl)pyridin-2-yl)-5-(((S/R)-4-methylmorpholin-2-yl)methyl)-1,3a,4,5,10,11a-hexahydro-2H-benzo[b]pyrrolo[2,3-f][1,4]diazocine-2,11(3H)-dione hydrochloride]	4.14 nM
Cc1cc(C(F)(F)F)cc(N2C(=O)C[C@@H]3CN(Cc4ccc([C@@H]5CCCN5C)cc4)c4c(F)cccc4N(C)C(=O)[C@H]32)n1 (racemic) [Example 125b, (3aR,11aS)-6-Fluoro-10-methyl-1-(6-methyl-4-(trifluoromethyl)pyridin-2-yl)-5-(4-((S/R)-1-methylpyrrolidin-2-yl)benzyl)-1,3a,4,5,10,11a-hexahydro-2H-benzo[b]pyrrolo[2,3-f][1,4]diazocine-2,11(3H)-dione]	2.48 nM

More lines, now with the values ahead:

Ki	Compound
11.8 nM	Cc1cc(C(F)(F)F)cc(N2C(=O)C[C@@H]3CN(CC(C)O)c4c(F)cccc4N(C)C(=O)[C@H]32)n1 (mixture of isomers) [Example 130a, (3aR,11aS)-6-fluoro-5-((S/R)-2-hydroxypropyl)-10-methyl-1-(6-methyl-4-(trifluoromethyl)pyridin-2-yl)-1,3a,4,5,10,11a-hexahydro-2H-benzo[b]pyrrolo[2,3-f][1,4]diazocine-2,11(3H)-dione]
28.2 nM	Cc1cc(C(F)(F)F)cc(N2C(=O)C[C@@H]3CN(C[C@H]4COCCN4)c4c(F)cccc4N(C)C(=O)[C@H]32)n1 (racemic) [Example 106b, (3aR,11aS)-6-Fluoro-10-methyl-1-(6-methyl-4-(trifluoromethyl)pyridin-2-yl)-5-(((S/R)-morpholin-3-yl)methyl)-1,3a,4,5,10,11a-hexahydro-2H-benzo[b]pyrrolo[2,3-f][1,4]diazocine-2,11(3H)-dione]
1.81 nM	Cc1cc(C(F)(F)F)cc(N2C(=O)C[C@@H]3CN(C[C@H]4COCCN4)c4c(C)cccc4N(C)C(=O)[C@H]32)n1 (racemic) [Example 112b, (3aR,11aS)-6,10-Dimethyl-1-(6-methyl-4-(trifluoromethyl)pyridin-2-yl)-5-(((S/R)-morpholin-3-yl)methyl)-1,3a,4,5,10,11a-hexahydro-2H-benzo[b]pyrrolo[2,3-f][1,4]diazocine-2,11(3H)-dione]
0.421 nM	Cc1cc(C(F)(F)F)cc(N2C(=O)C[C@@H]3CN(Cc4cn5c(n4)[C@H](C)N(C)CC5)c4c(C)cccc4N(C)C(=O)[C@H]32)n1 (racemic) [Example 116b, (3aR,11aS)-5-(((S/R)-7,8-Dimethyl-5,6,7,8-tetrahydroimidazo[1,2-a]pyrazin-2-yl)methyl)-6,10-dimethyl-1-(6-methyl-4-(trifluoromethyl)pyridin-2-yl)-1,3a,4,5,10,11a-hexahydro-2H-benzo[b]pyrrolo[2,3-f][1,4]diazocine-2,11(3H)-dione]
1.28 nM	Cc1cc(C(F)(F)F)cc(N2C(=O)C[C@@H]3CN(C[C@H]4COCCN4C)c4c(Cl)cccc4N(C)C(=O)[C@H]32)n1 (racemic) [Example 119a, (3aR,11aS)-6-Chloro-10-methyl-1-(6-methyl-4-(trifluoromethyl)pyridin-2-yl)-5-(((S/R)-4-methylmorpholin-3-yl)methyl)-1,3a,4,5,10,11a-hexahydro-2H-benzo[b]pyrrolo[2,3-f][1,4]diazocine-2,11(3H)-dione]
